“Also recorded” adds a separate entry of the source.
Legend:
nucleophosmin [1] = biological target: T1, nucleophosmin (Homo sapiens, UniProt P06748); assay: Competitive binding affinity-isolation with probe 5 in T-47D lysates, nucleophosmin; settings: for inhibition of binding of nucleophosmin to probe 5 by analogues (FIG. 4): T-47D nuclear-enriched lysate
T-47D cells = assay: Antiproliferative assay (CellTiter-Blue), T-47D cells; type: cell-based, human; settings: 72-h incubation
Method: G. Antiproliferative Assays. […] The cell suspension was diluted to 1.0×10^5 cells/mL. A multichannel pipette was used to load the wells of a 96-well plate with 100 μL per well of the diluted cell suspension. […] The following day, 100-μg portions of the nitrone samples were removed from the freezer, thawed, and dissolved in filter-sterilized DMSO to a concentration of 5 mM. A 6.5-μL aliquot of the nitrone solution was dissolved in 643.5 μL of medium to achieve a working concentration of 50 μM. Serial dilutions were employed to generate a range of different concentrations for analysis. Finally, 100-μL aliquots of this diluted nitrone solution were added to the wells containing adhered cells, resulting in final assay concentrations of up to 25 μM. The treated cells were incubated for 72 h at 37° C. (5% CO2). To each well was added 20 μL of CellTiter-Blue reagent, and the samples were returned to the incubator. Fluorescence (560 nm excitation/590 nm emission) was recorded on a 96-well plate reader following a 4.0-h incubation period (37° C., 5% CO2). Percent growth inhibition was calculated for each well, based upon the following formula: Percent growth inhibition=100×(S−B0)/(Bt−B0); where S is the sample reading, Bt is the average reading for a vehicle-treated population of cells at the completion of the assay, and B0 is the average reading for an untreated population of cells at the beginning of the assay. Each analogue was run a minimum of eight times, over a period of at least two weeks. For each compound, 14 separate concentrations were used in the assay, ranging from 25 μM to 8 nM. The average inhibition at each concentration was plotted against concentration, and a curve fit was generated. […] Final GI50 values reflect the concentrations at which the resulting curves pass through 50 percent inhibition.
The cell suspension was diluted to 1.0×10^5 cells/mL. A multichannel pipette was used to charge the wells of a 96-well plate with 100 μL per well of the diluted cell suspension.
The following day, a 6.5-μL aliquot of nitrone solution, at 5 mM in DMSO, was diluted in 643.5 μL of medium to achieve a working concentration of 50 μM. Serial dilutions were employed to generate a range of different concentrations for analysis. Finally, 100-μL aliquots of the diluted nitrone solutions were added to the wells containing adhered cells, resulting in final assay concentrations of up to 25 μM.
The treated cells were incubated for 72 h at 37° C. (5% CO2). To each well was added 20 μL of CellTiter-Blue reagent, and the samples were returned to the incubator. Fluorescence (560 nm excitation/590 nm emission) was recorded on a 96-well plate reader following a 4.0 h incubation period (37° C., 5% CO2).
Percent growth inhibition was calculated for each well, based upon the following formula:
Percent growth inhibition=100×(S−B0)/(Bt−B0)
where S is the sample reading, Bt is the average reading for a vehicle-treated population of cells at the completion of the assay, and B0 is the average reading for an untreated population of cells at the beginning of the assay.

nucleophosmin [2] = biological target: T1, nucleophosmin; assay: Affinity-isolation following co-incubation with iodoacetamide; type: binding; design: endogenous in cells; host or cells: T-47D (live cells, whole-cell lysate, nuclear-enriched lysate); settings: 10 μM probe 5, 10 mM iodoacetamide; whole cell lysate
Method: Identical affinity-isolation experiments to those described in the previous section were performed, except that iodoacetamide (8 μL of a freshly prepared 500 mM solution in DMSO) was added to one sample: […]

LNCaP cells = assay: Antiproliferative assay (CellTiter-Blue), LNCaP cells; type: cell-based, human; settings: 72-h incubation
Method: G. Antiproliferative Assays. […] The cell suspension was diluted to 1.0×10^5 cells/mL. A multichannel pipette was used to load the wells of a 96-well plate with 100 μL per well of the diluted cell suspension. […] The following day, 100-μg portions of the nitrone samples were removed from the freezer, thawed, and dissolved in filter-sterilized DMSO to a concentration of 5 mM. A 6.5-μL aliquot of the nitrone solution was dissolved in 643.5 μL of medium to achieve a working concentration of 50 μM. Serial dilutions were employed to generate a range of different concentrations for analysis. […] Fluorescence (560 nm excitation/590 nm emission) was recorded on a 96-well plate reader following a 4.0-h incubation period (37° C., 5% CO2). Percent growth inhibition was calculated for each well, based upon the following formula: Percent growth inhibition=100×(S−B0)/(Bt−B0); where S is the sample reading, Bt is the average reading for a vehicle-treated population of cells at the completion of the assay, and B0 is the average reading for an untreated population of cells at the beginning of the assay. […]
The treated cells were incubated for 72 h at 37° C. […] Fluorescence (560 nm excitation/590 nm emission) was recorded on a 96-well plate reader following a 4.0 h incubation period (37° C., 5% CO2).
Percent growth inhibition was calculated for each well, based upon the following formula: […]

proteins of T-47D cells = assay: Affinity-isolation from T-47D cells, LC-MS/MS analysis of proteins; settings: narrower region of the gel; equal concentrations
[3] = biological target: NPM1.3 (nucleophosmin isoform) (Homo sapiens, UniProt P06748, C275A); assay: Affinity-isolation of NPM1.3 cysteine to alanine mutants expressed in COS-7 cells with probe 5; settings: 1 μM probe 5, COS-7 cell lysates
[4] = tested on: NPM1.3 (nucleophosmin isoform); assay: as above; settings: 1 μM probe 5, COS-7 cell lysates
nucleophosmin [5] = biological target: T1, nucleophosmin; assay: Affinity-isolation from incubations with live T-47D cells, Western-blot detection of nucleophosmin; type: binding; design: endogenous in cells; host or cells: T-47D (live cells, whole-cell lysate, nuclear-enriched lysate); settings: 3 μM 5 versus 9 μM 3, 90 min
Method: To identify potential binding proteins, populations of healthy (adherent) T-47D cells were treated with the newly synthesized biotin conjugate 5 or the structurally simpler biotin-containing probe 3, previously studied. As a control, a separate population of cells was treated with the biotin derivative 7, which lacks the unsaturated nitrone function. The treated cells were incubated with probe or control for 90 min at 37° C., then were harvested, washed and lysed. The individual lysates were exposed to an agarose resin to remove nonspecific binding proteins. After centrifugation, the supernatants were then exposed to a streptavidin-agarose resin. This resin was collected by centrifugation and washed. Bound proteins were released by heat-denaturation, separated by SDS-PAGE, and analyzed by LC-MS/MS and Western-blot.
The lysates were transferred to fresh 1.7-mL centrifuge tubes. Each individual sample lysate was treated with 50 μL of washed, well-suspended, two-fold diluted Sepharose resin. […] The supernatant was transferred to a clean 1.7-mL centrifuge tube.
(§1) The supernatant was discarded.

nucleophosmin [6] = biological target: T1, nucleophosmin; assay: Titration of probe 5-nucleophosmin binding in T-47D whole cell lysate; design: endogenous in cells; host or cells: T-47D (live cells, whole-cell lysate, nuclear-enriched lysate); settings: whole-cell lysates of T-47D cells
Method: as §1
A 1-mL aliquot of T-47D whole cell lysate was thawed at 4° C. and diluted with 4 mL wash buffer, to afford a working lysate of 1.5 mg/mL total protein.

exportin-1 (XPO1) = biological target: T2, exportin-1 (XPO1) (Homo sapiens, UniProt O14980); assay: Competitive binding affinity-isolation with probe 5 in T-47D lysates, exportin-1; settings: 10 μM probe 5, 100 μM inhibitor
T2 construct: endogenous in cells; host or cells: T-47D lysate
Text: as §1
(§2) See above for solution preparation.

peroxiredoxin 1 (PRX1) = biological target: T3, peroxiredoxin 1 (PRX1) (Homo sapiens, UniProt Q06830); assay: Competitive binding affinity-isolation with probe 5 in T-47D lysates, peroxiredoxin 1; settings: 10 μM probe 5, 100 μM inhibitor
T3 construct: endogenous in cells; host or cells: T-47D lysate
Text: as §1, §2

[7] = tested on: MALME-3M and MALME-3 cells; assay: Selectivity assay, malignant melanoma MALME-3M versus fibroblast MALME-3; type: cell-based; settings: MALME-3M versus MALME-3
Method: […]. A cell line from a healthy fibroblast from the same patient has also been deposited with the American Type Cell Culture Corporation (ATCC). Fresh stockes of both MALME-3M and MALME-3 from ATCC. Avrainvillamide was test against the two cells lines at the same time, taking all possible precautions to ensure that both sets of samples were treated identically. […] As a measure of cytotoxicity and antiproliferative activity, we calculated both LC50 and LC25 (as an estimate of GI50).
The 9.7-fold selectivity at 25 percent cell death is representative of at least a modest degree of selectivity. For comparison, cytochalsine B and geldanamycin were analyzed in identical experiments. Cytochalasine B is a non-selective cytotoxic agent for which a selectivity factor of 0.2 at 25 percent cell death was observed. Geldanamycin is known to be a potent, selective inhibitor of tumor cell growth for which a selectivity factor of >100 at 25 percent cell death was observed.

CC1(C)C2=[N+]([O-])c3cc(C#Cc4ccccc4)ccc3C2=C[C@@]23NC(=O)C4(CCCN4C2=O)CC13 (some centres unmarked) [compound 10]
inhibition of binding of nucleophosmin to probe 5 by analogues (FIG. 4) (nucleophosmin [1]): least effectively inhibited

CC1(C)C2=[N+]([O-])c3cc(-c4ccccc4)ccc3C2=C[C@@]23NC(=O)C4(CCCN4C2=O)CC13 (some centres unmarked) [compound 8]
inhibition of the growth of T-47D cells (antiproliferative potency, in words) (T-47D cells): nearly as potent as avrainvillamide
inhibition of binding of nucleophosmin to probe 5 by analogues (FIG. 4) (nucleophosmin [1]): inhibited essentially equivalently

CC1(C)C2=[N+]([O-])c3c(cccc3-c3ccccc3)C2=C[C@@]23NC(=O)C4(CCCN4C2=O)CC13 (some centres unmarked) [compound 11]
inhibition of binding of nucleophosmin to probe 5 by analogues (FIG. 4) (nucleophosmin [1]): least effectively inhibited

NC(=O)CI [iodoacetamide]
binding of nucleophosmin to probe 5 in the presence of a 1000-fold excess (nucleophosmin [2]): substantially reduced

COCCCCCCCCCCNS(=O)(=O)c1cccc2c(N(C)C)cccc12 [compound 6, reference compound]
inhibition of the growth of T-47D cells (antiproliferative potency, in words) (T-47D cells): inactive
inhibition of the growth of LNCaP cells (antiproliferative potency, in words) (LNCaP cells): inactive

CC1(C/C=C/CCCCCCCCOC(=O)CCCC[C@@H]2SC[C@@H]3NC(=O)N[C@@H]32)C=Cc2c(ccc3c2[N+]([O-])=C2C3=C[C@@]34NC(=O)C5(CCCN5C3=O)CC4C2(C)C)O1 (some centres unmarked) [compound 5]
inhibition of the growth of T-47D cells (antiproliferative potency, in words) (T-47D cells): potencies similar to the natural product
inhibition of the growth of T-47D cells (antiproliferative potency, in words) (T-47D cells; listed as biotin-avrainvillamide conjugate): nearly equipotent to (+)-avrainvillamide
inhibition of the growth of LNCaP cells (antiproliferative potency, in words) (LNCaP cells): somewhat less potent than the dansyl conjugate (4)
detection of nucleophosmin by LC-MS/MS after affinity isolation (proteins of T-47D cells): detected
effect of deletion of cys275 on affinity-isolation of NPM1.3 [3]: greatly reduced
effect of deletion of cys21 or cys104 on affinity-isolation of NPM1.3 [4]: little effect
affinity-isolation of nucleophosmin by biotinylated probe (Western-blot) (nucleophosmin [5]): more effectively bound nucleophosmin; also recorded: selectively bind
concentration of probe sufficient to afford detectable levels of nucleophosmin (nucleophosmin [6]): 100 to 500 nM

CC1(C)C=Cc2c(ccc3c2[N+]([O-])=C2C3=C[C@@]34NC(=O)[C@]5(CCCN5C3=O)C[C@H]4C2(C)C)O1 (single isomer, unassigned; ent-1) [ent-1, (−)-avrainvillamide]
fold less potent than (+)-1 as inhibitor of T-47D cell growth (T-47D cells): ~3 fold
blocking of the binding of probe 5 to exportin-1 (XPO1) (exportin-1 (XPO1)): capable of blocking
blocking of the binding of probe 5 to peroxiredoxin 1 (PRX1) (peroxiredoxin 1 (PRX1)): capable of blocking
binding of nucleophosmin to probe 5 in the presence of a 10-fold higher concentration of competitor (nucleophosmin [1]; 10 μM probe 5, 100 μM competitor, nuclear-enriched and whole-cell T-47D lysates): not diminished
concentration required for inhibition of probe 5-nucleophosmin binding (nucleophosmin [1]; T-47D lysate): 500 µM
fold higher concentration versus 1 required for inhibition of probe 5-nucleophosmin binding (nucleophosmin [1]; T-47D lysate): ~5 fold

CC1(C)C2=[N+]([O-])c3ccc(-c4ccccc4)cc3C2=C[C@@]23NC(=O)C4(CCCN4C2=O)CC13 (some centres unmarked) [compound 9]
fold less potent than (+)-1 as inhibitor of T-47D cell growth (T-47D cells): 3 fold
inhibition of binding of nucleophosmin to probe 5 by analogues (FIG. 4) (nucleophosmin [1]): only partially inhibited

COC1=C2C[C@@H](C)C[C@H](OC)[C@H](O)[C@@H](C)/C=C(\C)[C@H](OC(N)=O)[C@@H](OC)/C=C\C=C(/C)C(=O)NC(=CC1=O)C2=O [Geldanamycin, reference compound]
selectivity factor, melanoma cells relative to fibroblast control (LC25, 25 percent cell death, estimate of GI50) [7]: > 100

C=C1[C@@H](C)[C@H]2[C@H](Cc3ccccc3)NC(=O)[C@]23OC(=O)/C=C/[C@H](O)CCC[C@@H](C)C/C=C/[C@H]3[C@@H]1O [Cytochalasine B, reference compound]
selectivity factor, melanoma cells relative to fibroblast control (LC25, 25 percent cell death, estimate of GI50) [7]: 0.2

CN(C)c1cccc2c(S(=O)(=O)NCCCCCCCCCCOc3ccc4c(c3)[N+]([O-])=C3C4=C[C@@]45NC(=O)C6(CCCN6C4=O)CC5C3(C)C)cccc12 (some centres unmarked) [compound 4]
inhibition of the growth of T-47D cells (antiproliferative potency, in words) (T-47D cells): potencies similar to the natural product
